Source: patent US20190364896A1, “SYNERGISTIC WEED CONTROL FROM APPLICATIONS OF PYRIDINE CARBOXYLIC ACID HERBICIDES AND ALS INHIBITORS” (Dow AgroSciences LLC, priority 2014, published 2019)
Like-named read-outs stand apart in the source and are kept apart here.

Legend:
Experiment in all cases: Postemergence herbicidal activity, greenhouse trial (visual injury 0-100%)
Format in all cases: in vivo
[1] = system: nutsedge (Cyperus esculentus, CYPES); details: Cyperus, post-emergence, read-out: % visual injury Obs
Procedure: (§1) Seeds of the desired test plant species were planted in Sun Gro MetroMix® 306 planting mixture, which typically has a pH of 6.0 to 6.8 and an organic matter content of about 30 percent, in plastic pots with a surface area of 103.2 square centimeters (cm^2). […] The plants were grown for 7-36 days (d) in a greenhouse with an approximate 14-hour (h) photoperiod which was maintained at about 23° C. during the day and 22° C. during the night. Nutrients and water were added on a regular basis and supplemental lighting was provided with overhead metal halide 1000-Watt lamps as necessary. The plants were employed for testing when they reached the second or third true leaf stage.
(§2) Weighed amounts of technical material were dissolved in a volume of 97:3 volume per volume (v/v) acetone/dimethyl sulfoxide (DMSO) to stock solutions. […] The concentrated stock solutions were diluted with an aqueous mixture of 1.5% v/v of Agri-dex crop oil concentrate to provide the appropriate application rates. Compound requirements are based upon a 12 milliliter (mL) application volume at a rate of 187 liters per hectare (L/ha). Spray solutions of the experimental compound mixtures were prepared by adding the stock solutions to the appropriate amount of dilution solution to form a 12 mL spray solution in two-way combinations. Formulated compounds were applied to the plant material with an overhead Mandel track sprayer equipped with 8002E nozzles calibrated to deliver 187 L/ha over an application area of 0.503 square meters (m^2) at a spray height of 18 inches (43 centimeters (cm)) above average plant canopy. Control plants were sprayed in the same manner with the solvent blank. Application rates for component (a) are in g ae/ha, and application rates for component (b) are in g ai/ha.
(§3) The treated plants and control plants were placed in a greenhouse as described above and watered by sub-irrigation to prevent wash-off of the test compounds. After 20-22 d, the condition of the test plants as compared with that of the control plants was determined visually and scored on a scale of 0 to 100 percent where 0 corresponds to no injury and 100 corresponds to complete kill. Colby's equation was used to determine the herbicidal effects expected from the mixtures. […]
(§4) Weighed amounts of technical or formulated material (emulsifiable concentrate (EC) or soluble concentrate (SL)) were dissolved in a volume of 97:3 volume per volume (v/v) acetone/dimethyl sulfoxide (DMSO) to stock solutions. […] The concentrated stock solutions were diluted with an aqueous mixture of 1.5% v/v of Agri-dex crop oil concentrate to provide the appropriate application rates. Compound requirements are based upon a 12 milliliter (mL) application volume at a rate of 187 liters per hectare (L/ha). Spray solutions of the experimental compound mixtures were prepared by adding the stock solutions to the appropriate amount of dilution solution to form a 12 mL spray solution in two-way combinations. Formulated compounds were applied to the plant material with an overhead Mandel track sprayer equipped with 8002E nozzles calibrated to deliver 187 L/ha over an application area of 0.503 square meters (m^2) at a spray height of 18 inches (43 centimeters (cm)) above average plant canopy. Control plants were sprayed in the same manner with the solvent blank. Application rates for component (a) are in g ae/ha, and application rates for component (b) are in g ai/ha.

[2] = system: barnyardgrass (Echinochloa crus-galli, ECHCG); details: Echinochloa crus-galli, post-emergence, 7.5 g ai/ha; read-out: % visual injury Obs
Procedure: as §1, §4
(§5) The treated plants and control plants were placed in a greenhouse as described above and watered by sub-irrigation to prevent wash-off of the test compounds. After 20-22 d, the condition of the test plants as compared with that of the control plants was determined visually and scored on a scale of 0 to 100 percent where 0 corresponds to no injury and 100 corresponds to complete kill. The condition of the test plants was compared with that of the control plants as determined visually and scored on a scale of 0 to 100 percent, where 0 corresponds to no injury and 100 corresponds to complete kill. Colby's equation was used to determine the herbicidal effects expected from the mixtures.
(§6) Compound 1 was formulated as an EC and was combined with florasulam, cloransulam, diclosulam, flumetsulam, penoxsulam, or pyroxsulam. Compound 2 was formulated as an EC and was combined with florasulam or pyroxsulam. The mixtures were applied to winter wheat (TRZAW), common rice (ORYSA), maize (ZEAMX), and the phytotoxicity of the herbicidal compositions was measured. In addition, the efficacy of the herbicidal compositions on blackgrass (Alopecurus myosuroides, ALOMY), pigweed (Amaranthus retrollexus, AMARE), wild oat (Avena fatua, AVEFA), common lambsquarters (Chenopodium album L., CHEAL), thistle (Cirsium arvense CIRAR), nutsedge (Cyperus esculentus, CYPES), barnyardgrass (Echinochloa crus-galli, ECHCG), poinsettia (Euphorbia heterophylla, EPHHL), ivyleaf morning-glory (Ipomoea hederacea, IPOHE), kochia (Kochia scoparia, KCHSC), wild buckwheat (Polygonum convolvulus, POLCO), grain sorghum (Sorghum vulgare, SORVU), chickweed (Stellaria media, STEME), wild pansy (Viola tricolor, VIOTR), was evaluated.
(§7) Weighed amounts of technical material were dissolved in a volume of 97:3 volume per volume (v/v) acetone/dimethyl sulfoxide (DMSO) to stock solutions. […] The concentrated stock solutions were diluted with an aqueous mixture of 1.5% v/v of Agri-dex crop oil concentrate to provide the appropriate application rates. Compound requirements are based upon a 12 milliliter (mL) application volume at a rate of 187 liters per hectare (L/ha). […]

[3] = system: ivyleaf morning-glory (Ipomoea hederacea, IPOHE); details: Ipomoea hederacea, post-emergence, read-out: % visual injury Obs
Procedure: as §1, §4, §5, §6, §7

[4] = system: kochia (Kochia scoparia, KCHSC); details: Bassia scoparia, post-emergence, read-out: % visual injury Obs
Procedure: as §1, §4, §3
(§8) Weighed amounts of technical material were dissolved in a volume of 97:3 volume per volume (v/v) acetone/dimethyl sulfoxide (DMSO) to stock solutions. […] The concentrated stock solutions were diluted with an aqueous mixture of 1.5% v/v of Agri-dex crop oil concentrate to provide the appropriate application rates. Compound requirements are based upon a 12 milliliter (mL) application volume at a rate of 187 liters per hectare (L/ha).

[5] = system: wild buckwheat (Polygonum convolvulus, POLCO); details: Fallopia convolvulus, post-emergence, read-out: % visual injury Obs
Procedure: as §1, §4, §3, §8

[6] = system: thistle (Cirsium arvense, CIRAR); details: Cirsium arvense, post-emergence, read-out: % visual injury Obs
Procedure: as §1, §4, §3, §8

[7] = system: poinsettia (Euphorbia heterophylla, EPHHL); details: Euphorbia heterophylla, post-emergence, read-out: % visual injury Obs
Procedure: as §1, §2, §3, §4

[8] = system: chickweed (Stellaria media, STEME); details: Stellaria media, post-emergence, STEME; azimsulfuron 6.25 g ai/ha; read-out: % visual injury Obs
Procedure: as §1, §4, §5, §6, §7

[9] = system: grain sorghum (Sorghum vulgare, SORVU)
Procedure: as §1, §4, §5, §6, §7

[10] = system: common lambsquarters (Chenopodium album L., CHEAL); details: Chenopodium album, post-emergence, read-out: % visual injury Obs
Procedure: as §1, §4, §5, §6, §7

[11] = system: wild pansy (Viola tricolor, VIOTR); details: Viola tricolor, post-emergence, read-out: % visual injury Obs
Procedure: as §1, §4, §5
as §6, with “Compound 1 was formulated as an EC and was combined with florasulam, cloransulam, diclosulam, flumetsulam, penoxsulam, or pyroxsulam.” left out
as §8

[12] = system: wild oat (Avena fatua, AVEFA)
Procedure: as §1, §4, §5, §6, §7

[13] = system: blackgrass (Alopecurus myosuroides, ALOMY)
Procedure: as §1, §4, §5, §6, §7

[14] = system: pigweed (Amaranthus retroflexus, AMARE); details: Amaranthus retroflexus, post-emergence, read-out: % visual injury Obs
Procedure: as §1, §4, §3, §8

## COc1cc(OC)nc(NC(=O)NS(=O)(=O)N(C)S(C)(=O)=O)n1 [Amidosulfuron, amidosulfuron]
[1]; 7.5 g ai/ha
  pest or weed control at […]: 20%
[2]
  pest or weed control at […]: 0%
[3]; 7.5 g ai/ha
  pest or weed control at […]: 35%
[4]; 7.5 g ai/ha
  pest or weed control at […]: 10%
[5]; 7.5 g ai/ha
  pest or weed control at […]: 85%
[6]; 7.5 g ai/ha
  pest or weed control at […]: 20%

## COc1cc(OC)nc(NC(=O)NS(=O)(=O)c2c(-c3nnn(C)n3)cnn2C)n1 [Azimsulfuron, azimsulfuron]
[7]; EPHHL, azimsulfuron 6.25 g ai/ha
  pest or weed control: 10%
[8]
  pest or weed control: 20%
[9]; SORVU, azimsulfuron 6.25 g ai/ha
  % visual injury Obs: 65%
[10]; CHEAL, azimsulfuron 6.25 g ai/ha
  pest or weed control: 10%
[3]; IPOHE, azimsulfuron 6.25 g ai/ha
  pest or weed control: 93%
[4]; KCHSC, azimsulfuron 6.25 g ai/ha
  pest or weed control: 0%
[11]; VIOTR, azimsulfuron 6.25 g ai/ha
  pest or weed control: 60%

## Nc1c(F)c(-c2ccc3cc[nH]c3c2F)nc(C(=O)OCc2ccccc2)c1Cl [Compound 2]
[7]; 5 g ae/ha
  pest or weed control at 5 g/ha: 35%
[7]; 10 g ae/ha
  pest or weed control at 10 g/ha: 75%
[1]; 5 g ae/ha
  pest or weed control at 5 g/ha: 5%
[1]; 10 g ae/ha
  pest or weed control at 10 g/ha: 10%
[12]; 5 g ae/ha
  % visual injury Obs: 0%
[12]; 10 g ae/ha
  % visual injury Obs: 0%
[10]; 5 g ae/ha
  pest or weed control at 5 g/ha: 88%
[10]; 10 g ae/ha
  pest or weed control at 10 g/ha: 99%
[13]; 5 g ae/ha
  % visual injury Obs: 0%
[13]; 10 g ae/ha
  % visual injury Obs: 0%
[3]; 5 g ae/ha
  pest or weed control at 5 g/ha: 10%
[3]; 10 g ae/ha
  pest or weed control at 10 g/ha: 20%
[14]; 5 g ae/ha
  pest or weed control at 5 g/ha: 88%
[14]; 10 g ae/ha
  pest or weed control at 10 g/ha: 100%

## Cc1ccn2nc(S(=O)(=O)Nc3c(F)cccc3F)nc2n1 [Flumetsulam, flumetsulam]
[7]; 4.375 g ai/ha
  pest or weed control: 30%
[1]; 4.375 g ai/ha
  pest or weed control: 10%
[9]; 4.375 g ai/ha
  % visual injury Obs: 60%
[4]; 4.375 g ai/ha
  pest or weed control: 60%
[6]; 4.375 g ai/ha
  pest or weed control: 10%
[11]; 4.375 g ai/ha
  pest or weed control: 70%

## COc1cc(OC)nc(NC(=O)NS(=O)(=O)c2cc(NC=O)ccc2C(=O)N(C)C)n1 [Foramsulfuron, foramsulfuron]
[13]; ALOMY, foramsulfuron 10 g ai/ha
  % visual injury Obs: 93%
[14]; AMARE, foramsulfuron 10 g ai/ha
  pest or weed control at 10 g/ha: 85%

## COC(=O)c1ccc(CNS(C)(=O)=O)cc1S(=O)(=O)NC(=O)Nc1nc(OC)cc(OC)n1 [Mesosulfuron, mesosulfuron]
[9]; SORVU, mesosulfuron 3 g ai/ha
  % visual injury Obs: 97%
[4]; KCHSC, mesosulfuron 3 g ai/ha
  pest or weed control at 3 g/ha: 10%
[5]; POLCO, mesosulfuron 3 g ai/ha
  pest or weed control at 3 g/ha: 20%

## COc1cnc(OC)n2nc(NS(=O)(=O)c3c(OCC(F)F)cccc3C(F)(F)F)nc12 [Penoxsulam, penoxsulam]
[7]; 5 g ai/ha
  pest or weed control at 5 g/ha: 60%
[1]; 5 g ai/ha
  pest or weed control at 5 g/ha: 70%
[9]; 5 g ai/ha
  % visual injury Obs: 0%
[3]; 5 g ai/ha
  pest or weed control at 5 g/ha: 90%
[4]; 5 g ai/ha
  pest or weed control at 5 g/ha: 10%
